Reference: PubChem BioAssay AID330 (DTP/NCI, 2004)
Several values for one entry are separate records, joined by “and”; a condition that tells them apart may be missing. Identical values can stand only once. Toxic doses and inconclusive results are not listed.

System: P388 leukemia ip, CD2F1 mice, survival T/C
Assay: NCI In Vivo Anticancer Drug Screen. Data for tumor model P388 Leukemia (intraperitoneal) in CD2F1 (CDF1) mice
Settings: endpoint: median survival time, higher = longer survival
Summary of the method: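 Mice carrying the transplanted tumor received test compound or vehicle. Survival was recorded in each group, and the value is the treated-group measurement divided by that of the vehicle-treated control group.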

[1] = dose: 25.0 mg/kg/injection, schedule: Q01DX009 (ip), vehicle: saline with Tween-80
[2] = dose: 50.0 mg/kg/injection, schedule: Q01DX009 (ip), vehicle: saline with Tween-80
[3] = dose: 100.0 mg/kg/injection, schedule: Q01DX009 (ip), vehicle: saline with Tween-80
[4] = dose: 50.0 mg/kg/injection, schedule: Q01DX005 (ip), vehicle: saline with Tween-80
[5] = dose: 100.0 mg/kg/injection, schedule: Q01DX005 (ip), vehicle: saline with Tween-80
[6] = dose: 60.0 mg/kg/injection, schedule: Q01DX005 (ip), vehicle: saline
[7] = dose: 120.0 mg/kg/injection, schedule: Q01DX005 (ip), vehicle: saline
[8] = dose: 240.0 mg/kg/injection, schedule: Q01DX005 (ip), vehicle: saline
[9] = dose: 100.0 mg/kg/injection, schedule: Q04DX003 (ip), vehicle: saline with Tween-80
[10] = dose: 200.0 mg/kg/injection, schedule: Q04DX003 (ip), vehicle: saline with Tween-80
[11] = dose: 400.0 mg/kg/injection, schedule: Q04DX003 (ip), vehicle: saline with Tween-80
[12] = dose: 50.0 mg/kg/injection, schedule: Q01DX005 (ip), vehicle: Klucel (hydroxypropylcellulose) (HPC)
[13] = dose: 100.0 mg/kg/injection, schedule: Q01DX005 (ip), vehicle: Klucel (hydroxypropylcellulose) (HPC)
[14] = dose: 200.0 mg/kg/injection, schedule: Q01DX005 (ip), vehicle: Klucel (hydroxypropylcellulose) (HPC)
[15] = dose: 200.0 mg/kg/injection, schedule: Q01DX005 (ip), vehicle: saline with Tween-80
[16] = dose: 50.0 mg/kg/injection, schedule: Q01DX009 (ip), vehicle: Klucel (hydroxypropylcellulose) (HPC)
[17] = dose: 100.0 mg/kg/injection, schedule: Q01DX009 (ip), vehicle: Klucel (hydroxypropylcellulose) (HPC)

## C1CC[N-]CC1.CC(=N\O)/C(C)=N/O.CC(=N\O)/C(C)=N/O.N#C[CH-]CC#N.[Co+2]
dose: 12.5 mg/kg/injection, schedule: Q01DX009 (ip), vehicle: saline with Tween-80
  T/C: 91 % of control
[1]
  T/C: 96 % of control
[2]
  T/C: 97 % of control
[3]
  T/C: 92 % of control

## COC(=O)C1=C(C(=O)OC)C(C)(C)N=N1
dose: 5.3 mg/kg/injection, schedule: Q01DX009 (ip), vehicle: other
  T/C: 111 % of control
dose: 8.0 mg/kg/injection, schedule: Q01DX009 (ip), vehicle: other
  T/C: 117 % of control
dose: 12.0 mg/kg/injection, schedule: Q01DX009 (ip), vehicle: other
  T/C: 114 % of control
dose: 18.0 mg/kg/injection, schedule: Q01DX009 (ip), vehicle: other
  T/C: 112 % of control
dose: 25.0 mg/kg/injection, schedule: Q01DX009 (ip), vehicle: other
  T/C: 99 % of control

## CN1C(=O)C/C(=C\N2CCCCC2)C1=O
[4]
  T/C: 98 % of control
[5]
  T/C: 102 % of control

## CCN(CC)CCCC(C)Nc1nc(-c2ccc(OC)cc2)nc2cc(Cl)ccc12 (centres undefined)
dose: 50.0 mg/kg/injection, schedule: Q01DX005 (ip), vehicle: saline
  T/C: 102 % of control
dose: 100.0 mg/kg/injection, schedule: Q01DX005 (ip), vehicle: saline
  T/C: 93 % of control

## CN(C)c1ccc(N=O)cc1
dose: 1.56 mg/kg/injection, schedule: Q01DX009 (ip), vehicle: saline
  T/C: 110 % of control
dose: 3.12 mg/kg/injection, schedule: Q01DX009 (ip), vehicle: saline
  T/C: 110 % of control
dose: 6.25 mg/kg/injection, schedule: Q01DX009 (ip), vehicle: saline
  T/C: 94 % of control

## CC(C)/C=C1\C(=O)NCC(=O)N1Cc1ccccc1
dose: 75.0 mg/kg/injection, schedule: Q01DX001 (ip), vehicle: Klucel (hydroxypropylcellulose) (HPC)
  T/C: 103 % of control
dose: 150.0 mg/kg/injection, schedule: Q01DX001 (ip), vehicle: Klucel (hydroxypropylcellulose) (HPC)
  T/C: 100 % of control
dose: 300.0 mg/kg/injection, schedule: Q01DX001 (ip), vehicle: Klucel (hydroxypropylcellulose) (HPC)
  T/C: 94 % of control

## NC(Cc1ccc(OC2CCCC2)c(N(CCCl)CCCl)c1)C(=O)O (centres undefined)
dose: 7.5 mg/kg/injection, schedule: Q04DX003 (ip), vehicle: saline
  T/C: 168 % of control
dose: 15.0 mg/kg/injection, schedule: Q04DX003 (ip), vehicle: saline
  T/C: 168 % of control
dose: 30.0 mg/kg/injection, schedule: Q04DX003 (ip), vehicle: saline
  T/C: 218 % of control

## COC(=O)C(CCc1ccc([N+](=O)[O-])cc1)C(C)=O (centres undefined)
[6]
  T/C: 102 % of control
[7]
  T/C: 97 % of control
[8]
  T/C: 95 % of control

## CN(C)c1ccc(/C=C2\C=Cc3ccccc32)cc1
[9]
  T/C: 109 % of control
[10]
  T/C: 90 % of control
[11]
  T/C: 90 % of control

## COC(=O)NC1=Nc2ccccc2N(C(=O)C(C)C)S1
[12]
  T/C: 100 % of control
[13]
  T/C: 101 % of control
[14]
  T/C: 97 % of control

## NC(CO)C(=O)NCCS(=O)(=O)O (centres undefined)
[6]
  T/C: 104 % of control
[7]
  T/C: 99 % of control
[8]
  T/C: 99 % of control

## CC1(NC(=O)C23CC4CC(CC(C4)C2)C3)CCC(C(C)(C)NC(=O)C23CC4CC(CC(C4)C2)C3)CC1 (centres undefined)
[4]
  T/C: 88 % of control
[5]
  T/C: 88 % of control
[15]
  T/C: 86 % of control

## O=C(NC(=S)Nc1ccsc1)c1ccccc1
[2]
  T/C: 90 % of control
[3]
  T/C: 88 % of control

## O=[N+]([O-])c1ccccc1C(Nc1nncs1)Nc1nncs1
[12]
  T/C: 102 % of control
[13]
  T/C: 102 % of control and 121 % of control

## CC(=O)Nc1ccc2nc3n(c(=O)c2c1)CCCC3
dose: 100.0 mg/kg/injection, schedule: Q01DX001 (ip), vehicle: Klucel (hydroxypropylcellulose) (HPC)
  T/C: 101 % of control
dose: 200.0 mg/kg/injection, schedule: Q01DX001 (ip), vehicle: Klucel (hydroxypropylcellulose) (HPC)
  T/C: 101 % of control
dose: 400.0 mg/kg/injection, schedule: Q01DX001 (ip), vehicle: Klucel (hydroxypropylcellulose) (HPC)
  T/C: 100 % of control

## CC(C)(C)c1cc(C2C(C#N)C(=O)NC(=O)C2C#N)cc(C(C)(C)C)c1O (centres undefined)
[16]
  T/C: 103 % of control
[17]
  T/C: 100 % of control
dose: 200.0 mg/kg/injection, schedule: Q01DX009 (ip), vehicle: Klucel (hydroxypropylcellulose) (HPC)
  T/C: 94 % of control

## CC(C(=O)O)c1ccc(C(=O)c2cccs2)cc1 (centres undefined)
[2]
  T/C: 97 % of control
[3]
  T/C: 97 % of control
dose: 200.0 mg/kg/injection, schedule: Q01DX009 (ip), vehicle: saline with Tween-80
  T/C: 97 % of control

## CCOC(=O)C1(CC)CC(OCC)OC1=O (centres undefined)
[12]
  T/C: 100 % of control
[13]
  T/C: 93 % of control
[14]
  T/C: 97 % of control

## Clc1ccc(CSc2ncnc3nc[nH]c23)cc1
[9]
  T/C: 109 % of control
[10]
  T/C: 104 % of control
[11]
  T/C: 109 % of control

## COc1ccccc1N=Nc1cccc[c]1[Hg][Cl]
dose: 9.0 mg/kg/injection, schedule: Q01DX009 (ip), vehicle: saline
  T/C: 107 % of control and 113 % of control and 118 % of control
dose: 18.0 mg/kg/injection, schedule: Q01DX009 (ip), vehicle: saline
  T/C: 114 % of control and 119 % of control
dose: 36.0 mg/kg/injection, schedule: Q01DX009 (ip), vehicle: saline
  T/C: 102 % of control and 113 % of control

## NC(=O)N1CCC2c3ccccc3NC(=S)N21 (centres undefined)
dose: 100.0 mg/kg/injection, schedule: Q01DX001 (ip), vehicle: saline with Tween-80
  T/C: 102 % of control
dose: 200.0 mg/kg/injection, schedule: Q01DX001 (ip), vehicle: saline with Tween-80
  T/C: 99 % of control
dose: 400.0 mg/kg/injection, schedule: Q01DX001 (ip), vehicle: saline with Tween-80
  T/C: 99 % of control

## O=S(Nc1ccccc1)Nc1ccccc1
[1]
  T/C: 100 % of control
[2]
  T/C: 100 % of control
[3]
  T/C: 90 % of control

## O=C(/C=C/c1ccco1)C1C(=O)CCC1=O
dose: 50.0 mg/kg/injection, schedule: Q01DX005 (ip), vehicle: Klucel + Tween-80
  T/C: 98 % of control
dose: 100.0 mg/kg/injection, schedule: Q01DX005 (ip), vehicle: Klucel + Tween-80
  T/C: 104 % of control

## NC(=S)c1cccc(/C=N/Nc2ccccn2)c1
dose: 100.0 mg/kg/injection, schedule: Q01DX001 (ip), vehicle: saline
  T/C: 96 % of control
dose: 200.0 mg/kg/injection, schedule: Q01DX001 (ip), vehicle: saline
  T/C: 94 % of control
dose: 400.0 mg/kg/injection, schedule: Q01DX001 (ip), vehicle: saline
  T/C: 96 % of control

## CSCC1COC(=O)N1 (centres undefined)
dose: 100.0 mg/kg/injection, schedule: Q04DX002 (ip), vehicle: distilled water + alcohol
  T/C: 100 % of control
dose: 200.0 mg/kg/injection, schedule: Q04DX002 (ip), vehicle: distilled water + alcohol
  T/C: 106 % of control
dose: 400.0 mg/kg/injection, schedule: Q04DX002 (ip), vehicle: distilled water + alcohol
  T/C: 100 % of control

## CC(C)(C)OC(=O)NC(CC(=O)OCc1ccccc1)C(=O)ON1C(=O)CCC1=O (centres undefined)
[12]
  T/C: 106 % of control
[13]
  T/C: 106 % of control
[14]
  T/C: 97 % of control

## CCCCCCCCC(C(=O)N/N=C(\C)c1ccccc1)C(=O)N/N=C(\C)c1ccccc1
dose: 50.0 mg/kg/injection, schedule: Q01DX009 (ip), vehicle: saline
  T/C: 101 % of control
dose: 100.0 mg/kg/injection, schedule: Q01DX009 (ip), vehicle: saline
  T/C: 105 % of control
dose: 200.0 mg/kg/injection, schedule: Q01DX009 (ip), vehicle: saline
  T/C: 100 % of control

## CC1=CC2OC34COC3CC(OC(=O)C(F)(F)F)C4(C)C2(C)CC1 (centres undefined)
dose: 24.0 mg/kg/injection, schedule: Q04DX003 (ip), vehicle: saline with Tween-80
  T/C: 120 % of control
dose: 37.5 mg/kg/injection, schedule: Q04DX003 (ip), vehicle: saline with Tween-80
  T/C: 113 % of control
dose: 55.0 mg/kg/injection, schedule: Q04DX003 (ip), vehicle: saline with Tween-80
  T/C: 112 % of control

## O=C(c1ccccc1)c1cnc2nc(-c3ccccc3)c(-c3ccccc3)nn12
dose: 12.5 mg/kg/injection, schedule: Q01DX005 (ip), vehicle: saline with Tween-80
  T/C: 89 % of control
dose: 25.0 mg/kg/injection, schedule: Q01DX005 (ip), vehicle: saline with Tween-80
  T/C: 90 % of control
[4]
  T/C: 93 % of control and 94 % of control
[5]
  T/C: 101 % of control
[15]
  T/C: 102 % of control

## CCCCN=Cc1ccccc1O.CCCCN=Cc1ccccc1O.[Zn]
[16]
  T/C: 98 % of control
[17]
  T/C: 112 % of control
